# Laboratory results published in ChEMBL document CHEMBL5154858, “Pocket-to-Lead: Structure-Based De Novo Design of Novel Non-peptidic HIV-1 Protease Inhibitors Using the Ligand Binding Pocket as a Template” (J Med Chem, 2022).
# What was measured:
# [1] = target: Human immunodeficiency virus type 1 protease (Human immunodeficiency virus 1, UniProt Q72874); assay: Inhibition of wild type HIV1 protease expressed in Escherichia coli BL21 DE3 assessed as cleavage of fluorogenic substrate using EDANS-RESGIFLETSKR-DABCYL preincubated for 15 mins with compound followed by substrate addition and measured after 60 mins by microplate reader analysis
# [2] = system: Human immunodeficiency virus 1; assay: Antiviral activity against HIV-1 IIIB infected in human MT4 cells assessed as inhibition of virus-induced cell death preincubated for 1 hr with compound followed by viral infection measured after 5 days by MTT assay; format: functional, organism-based; settings: Human immunodeficiency virus 1, IIIB
compound,measurement,setting,value
COc1ccc(CN2C[C@H](O)[C@@](CCC(C)C)(c3ccc(S(C)(=O)=O)cc3OC(C)C)C2=O)cc1 (mixture of isomers),IC50,[1],0.082 µM
same,EC50,[2],11 µM
COc1ccc(CN2C[C@H](O)[C@@](CC(C)C)(c3ccc(S(C)(=O)=O)cc3)C2=O)cc1 (mixture of isomers),IC50,[1],34 µM
COc1ccc(CN2C[C@H](O)[C@@](CCC(C)C)(c3ccc(S(C)(=O)=O)cc3O[C@@H](C)CO)C2=O)cc1 (mixture of isomers),IC50,[1],0.0071 µM
same,EC50,[2],0.86 µM
COc1ccc(CN2C[C@H](O)[C@@](CCC(C)C)(c3ccc(S(C)(=O)=O)cc3)C2=O)cc1 (mixture of isomers),IC50,[1],2 µM
same,EC50,[2],> 20 µM
COc1ccc(CN2C[C@@H](O)[C@@](Cc3ccc(F)cc3)(c3ccc(S(C)(=O)=O)cc3)C2=O)cc1 (mixture of isomers),IC50,[1],77 µM
COc1ccc(CN2C[C@H](O)[C@@](Cc3ccc(F)cc3)(c3ccc(S(C)(=O)=O)cc3)C2=O)cc1 (racemic),IC50,[1],54 µM
CCC[C@]1(c2ccc(S(C)(=O)=O)cc2)C(=O)N(Cc2ccc(OC)cc2)C[C@@H]1O (mixture of isomers),IC50,[1],32 µM
